Source: ChEMBL document CHEMBL3885881, “DrugMatrix”

Organism: Rattus norvegicus
Assay: DrugMatrix - Regimen: Daily Repeat
Format: toxicity, organism-based, Sprague-Dawley
Parameters: regimen Daily Repeat, gender Male, age 6-8 weeks
Details: in vivo, po, route oral GAVAGE, vehicle 100 % WATER; for ABSOLUTE BASOPHIL / ABSOLUTE EOSINOPHIL / ABSOLUTE LYMPHOCYTE / ABSOLUTE MONOCYTE / ABSOLUTE SEGMENTED NEUTROPHIL / BASOPHIL / EOSINOPHIL / ERYTHROCYTE COUNT / HEMATOCRIT / HEMOGLOBIN / LEUKOCYTE COUNT / LYMPHOCYTE / MEAN CORPUSCULAR HEMOGLOBIN / MEAN CORPUSCULAR HEMOGLOBIN CONCENTRATION / MEAN CORPUSCULAR VOLUME / MONOCYTE / NEUTROPHIL / NUCLEATED RED BLOOD CELLS / PLATELET COUNT: tissue Blood; for ALANINE AMINOTRANSFERASE / ALBUMIN / ALKALINE PHOSPHATASE / ASPARTATE AMINOTRANSFERASE / BLOOD UREA NITROGEN / CARBON DIOXIDE / CHLORIDE / CHOLESTEROL / CREATINE PHOSPHOKINASE / CREATININE / GLUCOSE / LACTATE DEHYDROGENASE / LIPASE / PHOSPHORUS / POTASSIUM / SODIUM / TOTAL BILIRUBIN / TOTAL PROTEIN / URIC ACID: tissue Plasma
[1] = 0 mg/kg, 72 h, dose level Control, time 3 day
[2] = 0 mg/kg, 120 h, dose level Control, time 5 day
[3] = 4.5 mg/kg, 72 h, dose level Low, time 3 day

SMILES: NN [HYDRAZINE]
- ABSOLUTE BASOPHIL [1]: 0 CELLS/uL
- ABSOLUTE EOSINOPHIL [1]: 20.17 CELLS/uL
- ABSOLUTE LYMPHOCYTE [1]: 12371.67 CELLS/uL
- ABSOLUTE MONOCYTE [1]: 166 CELLS/uL
- ABSOLUTE SEGMENTED NEUTROPHIL [1]: 1292.17 CELLS/uL
- BASOPHIL [1]: 0%
- EOSINOPHIL [1]: 0.17%
- ERYTHROCYTE COUNT [1]: 5.46 x10E6/uL
- HEMATOCRIT [1]: 34.38%
- HEMOGLOBIN [1]: 13.32 G/DL
- LEUKOCYTE COUNT [1]: 13.85 x10E3/uL
- LYMPHOCYTE [1]: 88.5%
- MEAN CORPUSCULAR HEMOGLOBIN [1]: 24.42 pg
- MEAN CORPUSCULAR HEMOGLOBIN CONCENTRATION [1]: 38.7 G/DL
- MEAN CORPUSCULAR VOLUME [1]: 63.07 fL
- MONOCYTE [1]: 1.17%
- NEUTROPHIL [1]: 10.17%
- NUCLEATED RED BLOOD CELLS [1]: 0.17 /100WBC
- PLATELET COUNT [1]: 1193.5 x10E3/uL
- ALANINE AMINOTRANSFERASE [1]: 54.5 u/L
- ALBUMIN [1]: 4.02 G/DL
- ALKALINE PHOSPHATASE [1]: 346.5 u/L
- ASPARTATE AMINOTRANSFERASE [1]: 103.17 u/L
- BLOOD UREA NITROGEN [1]: 16.5 mg/dL
- CARBON DIOXIDE [1]: 29.83 mmol/L
- CHLORIDE [1]: 99.5 MEQ/L
- CHOLESTEROL [1]: 72.5 mg/dL
- CREATINE PHOSPHOKINASE [1]: 532.5 u/L
- CREATININE [1]: 0.18 mg/dL
- GLUCOSE [1]: 168.5 mg/dL
- LACTATE DEHYDROGENASE [1]: 536.5 u/L
- LIPASE [1]: 11.17 u/L
- PHOSPHORUS [1]: 11.48 mg/dL
- POTASSIUM [1]: 5.95 MEQ/L
- SODIUM [1]: 140.5 MEQ/L
- TOTAL BILIRUBIN [1]: 0.18 mg/dL
- TOTAL PROTEIN [1]: 5.77 G/DL
- URIC ACID [1]: 1.42 mg/dL
- ABSOLUTE BASOPHIL [2]: 0 CELLS/uL
- ABSOLUTE EOSINOPHIL [2]: 22.83 CELLS/uL
- ABSOLUTE LYMPHOCYTE [2]: 12202.83 CELLS/uL
- ABSOLUTE MONOCYTE [2]: 158 CELLS/uL
- ABSOLUTE SEGMENTED NEUTROPHIL [2]: 1283 CELLS/uL
- BASOPHIL [2]: 0%
- EOSINOPHIL [2]: 0.17%
- ERYTHROCYTE COUNT [2]: 5.88 x10E6/uL
- HEMATOCRIT [2]: 36.62%
- HEMOGLOBIN [2]: 14.07 G/DL
- LEUKOCYTE COUNT [2]: 13.67 x10E3/uL
- LYMPHOCYTE [2]: 89.5%
- MEAN CORPUSCULAR HEMOGLOBIN [2]: 23.95 pg
- MEAN CORPUSCULAR HEMOGLOBIN CONCENTRATION [2]: 38.43 G/DL
- MEAN CORPUSCULAR VOLUME [2]: 62.28 fL
- MONOCYTE [2]: 1.17%
- NEUTROPHIL [2]: 9.17%
- NUCLEATED RED BLOOD CELLS [2]: 0.17 /100WBC
- PLATELET COUNT [2]: 1198 x10E3/uL
- ALANINE AMINOTRANSFERASE [2]: 51 u/L
- ALBUMIN [2]: 4.3 G/DL
- ALKALINE PHOSPHATASE [2]: 343 u/L
- ASPARTATE AMINOTRANSFERASE [2]: 89.83 u/L
- BLOOD UREA NITROGEN [2]: 17.67 mg/dL
- CARBON DIOXIDE [2]: 27.17 mmol/L
- CHLORIDE [2]: 98.33 MEQ/L
- CHOLESTEROL [2]: 82.5 mg/dL
- CREATINE PHOSPHOKINASE [2]: 533.33 u/L
- CREATININE [2]: 0.18 mg/dL
- GLUCOSE [2]: 152.67 mg/dL
- LACTATE DEHYDROGENASE [2]: 220.33 u/L
- LIPASE [2]: 11.5 u/L
- PHOSPHORUS [2]: 11.25 mg/dL
- POTASSIUM [2]: 6.29 MEQ/L
- SODIUM [2]: 140.53 MEQ/L
- TOTAL BILIRUBIN [2]: 0.22 mg/dL
- TOTAL PROTEIN [2]: 6.12 G/DL
- URIC ACID [2]: 1.42 mg/dL
- ABSOLUTE BASOPHIL [3]: 0 CELLS/uL
- ABSOLUTE EOSINOPHIL [3]: 52 CELLS/uL
- ABSOLUTE LYMPHOCYTE [3]: 11298 CELLS/uL
- ABSOLUTE MONOCYTE [3]: 113 CELLS/uL
- ABSOLUTE SEGMENTED NEUTROPHIL [3]: 1470.33 CELLS/uL
- BASOPHIL [3]: 0%
- EOSINOPHIL [3]: 0.33%
- ERYTHROCYTE COUNT [3]: 5.57 x10E6/uL
- HEMATOCRIT [3]: 35.73%
- HEMOGLOBIN [3]: 13.97 G/DL
- LEUKOCYTE COUNT [3]: 12.93 x10E3/uL
- LYMPHOCYTE [3]: 87.33%
- MEAN CORPUSCULAR HEMOGLOBIN [3]: 25.1 pg
- MEAN CORPUSCULAR HEMOGLOBIN CONCENTRATION [3]: 39.1 G/DL
- MEAN CORPUSCULAR VOLUME [3]: 64.2 fL
- MONOCYTE [3]: 1%
- NEUTROPHIL [3]: 11.33%
- NUCLEATED RED BLOOD CELLS [3]: 0.33 /100WBC
- PLATELET COUNT [3]: 1229.67 x10E3/uL
- ALANINE AMINOTRANSFERASE [3]: 44.67 u/L
- ALBUMIN [3]: 4.07 G/DL
- ALKALINE PHOSPHATASE [3]: 421.33 u/L
- ASPARTATE AMINOTRANSFERASE [3]: 89.67 u/L
- BLOOD UREA NITROGEN [3]: 13.33 mg/dL
- CARBON DIOXIDE [3]: 30.67 mmol/L
- CHLORIDE [3]: 99 MEQ/L
- CHOLESTEROL [3]: 73.67 mg/dL
- CREATINE PHOSPHOKINASE [3]: 298.33 u/L
- CREATININE [3]: 0.17 mg/dL
- GLUCOSE [3]: 155 mg/dL
- LACTATE DEHYDROGENASE [3]: 178.33 u/L
- LIPASE [3]: 10.67 u/L
- PHOSPHORUS [3]: 11.43 mg/dL
- POTASSIUM [3]: 6.44 MEQ/L
- SODIUM [3]: 142.33 MEQ/L
- TOTAL BILIRUBIN [3]: 0.2 mg/dL
- TOTAL PROTEIN [3]: 6.07 G/DL
- URIC ACID [3]: 1.73 mg/dL
